Results: patent publication EP0401963A1, “Phosphonopeptides with collagenase inhibiting activity” (Beecham Group p.l.c., priority 1989, dated 1990)

Target: human lung fibroblast collagenase
Assay: Collagenase inhibitor assay (human lung fibroblast collagenase, 14C-acetylated Type I collagen fibril degradation)
Type: biochemical
Conditions: Inhibition of human lung fibroblast collagenase (purified from WI-38 culture supernatants); 14C-acetylated rat skin Type I collagen substrate; 37°C overnight; read-out: IC₅₀
Method: The assay tubes are incubated at 37 °C overnight.

| SMILES | IC50 [nM] |
| --- | --- |
| CC[C@@H](N[C@@H](CC(C)C)C(=O)NC1CCCCCCCCCCNC1=O)P(=O)(O)O (single isomer, unassigned) [Example E3C] | 45 |
| CC[C@H](N[C@@H](CC(C)C)C(=O)NC1CCCCCCCCCCNC1=O)P(=O)(O)O (single isomer, unassigned) [Example E4] | 166 |
| CCCCC(N[C@@H](CC(C)C)C(=O)NC1CCCCCCCCCCNC1=O)P(=O)(O)O (stereo partly drawn) [Example E8, 3-[N-[N-(1-Phosphonopentyl)-(S)-leucyl]]-(-)-aminoazacyclotridecan-2-one] | 9490 |
